Data: patent US20240300932A1, “N-PHENYLIMINE DERIVATIVE AND PREPARATION METHOD AND USE THEREOF” (Guizhou University, priority 2023, published 2024)

Assays:
Experiment in all cases: Post-emergence herbicidal activity test (stem and leaf spray, pot culture)
Assay type in all cases: in vivo
Conditions in all cases: 3 weeks after spraying
Abutilon theophrasti = test system: Abutilon theophrasti
How it was run: (§1)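 Greenhouse pot-grown weeds (loam, pH 7) sprayed post-emergence at 2- to 3-leaf stage with acetone/Tween 80 formulation plus 1.5 liters/ha methyl oleate, at 10, 5 and 2.5 g/mu. Fresh-weight growth control rated 3 weeks later on 0–5 grade scale.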

Amaranthus retroflexus = test system: Amaranthus retroflexus
How it was run: as §1

Echinochloa crusgalli = test system: Echinochloa crusgalli
How it was run: as §1

Portulaca oleracea = test system: Portulaca oleracea
How it was run: as §1

Setaria viridis = test system: Setaria viridis
How it was run: as §1

Trifoliumre pensL. = test system: Trifoliumre pensL.
How it was run: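 Pot-grown weeds in loam (pH 7), greenhouse at 20–30 °C, sprayed once post-emergence at the 2–3-leaf stage. Compound in acetone with Tween 80 plus methyl oleate oil (1.5 L/ha), applied at 10, 5 and 2.5 g/mu by spray tower. Effect scored 3 weeks after spraying, averaged over three repeats.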

Row | SMILES | Post-emergence herbicidal activity, A. theophrasti (grade) (Abutilon theophrasti; dosage 2.5 g/mu) | Post-emergence herbicidal activity, A. theophrasti (grade) (Abutilon theophrasti; dosage 5 g/mu) | Post-emergence herbicidal activity, A. theophrasti (grade) (Abutilon theophrasti; dosage 10 g/mu) | Post-emergence herbicidal activity, A. retroflexus (grade) (Amaranthus retroflexus; dosage 2.5 g/mu) | Post-emergence herbicidal activity, A. retroflexus (grade) (Amaranthus retroflexus; dosage 5 g/mu) | Post-emergence herbicidal activity, A. retroflexus (grade) (Amaranthus retroflexus; dosage 10 g/mu) | Post-emergence herbicidal activity, E. crusgalli (grade) (Echinochloa crusgalli; dosage 2.5 g/mu) | Post-emergence herbicidal activity, E. crusgalli (grade) (Echinochloa crusgalli; dosage 5 g/mu) | Post-emergence herbicidal activity, E. crusgalli (grade) (Echinochloa crusgalli; dosage 10 g/mu) | Post-emergence herbicidal activity, P. oleracea (grade) (Portulaca oleracea; dosage 2.5 g/mu) | Post-emergence herbicidal activity, P. oleracea (grade) (Portulaca oleracea; dosage 5 g/mu) | Post-emergence herbicidal activity, P. oleracea (grade) (Portulaca oleracea; dosage 10 g/mu) | Post-emergence herbicidal activity, S. viridis (grade) (Setaria viridis; dosage 2.5 g/mu) | Post-emergence herbicidal activity, S. viridis (grade) (Setaria viridis; dosage 5 g/mu) | Post-emergence herbicidal activity, S. viridis (grade) (Setaria viridis; dosage 10 g/mu) | Post-emergence herbicidal activity, Trifoliumre pensL. (grade) (Trifoliumre pensL.; dosage 2.5 g/mu) | Post-emergence herbicidal activity, Trifoliumre pensL. (grade) (Trifoliumre pensL.; dosage 5 g/mu) | Post-emergence herbicidal activity, Trifoliumre pensL. (grade) (Trifoliumre pensL.; dosage 10 g/mu)
1 | O=C1C2=C(CCCC2)C(=O)N1c1cc(OCc2nc(-c3cc(F)ccc3Cl)no2)c(Cl)cc1F [Compound A21] | 5 (Grade 5: the growth control rate is greater than or equal to 85%) | 5 (Grade 5: the growth control rate is greater than or equal to 85%) | 5 (Grade 5: the growth control rate is greater than or equal to 85%) | 5 (Grade 5: the growth control rate is greater than or equal to 85%) | 5 (Grade 5: the growth control rate is greater than or equal to 85%) | 5 (Grade 5: the growth control rate is greater than or equal to 85%) | 1 (Grade 1: the growth control rate is greater than or equal to 5% and less than 20%) | 2 (Grade 2: the growth control rate is greater than or equal to 20% and less than 40%) | 3 (Grade 3: the growth control rate is greater than or equal to 40% and less than 60%) | 4 (Grade 4: the growth control rate is greater than or equal to 60% and less than 85%) | 5 (Grade 5: the growth control rate is greater than or equal to 85%) | 5 (Grade 5: the growth control rate is greater than or equal to 85%) | 2 (Grade 2: the growth control rate is greater than or equal to 20% and less than 40%) | 3 (Grade 3: the growth control rate is greater than or equal to 40% and less than 60%) | 4 (Grade 4: the growth control rate is greater than or equal to 60% and less than 85%) | 4 (Grade 4: the growth control rate is greater than or equal to 60% and less than 85%) | 5 (Grade 5: the growth control rate is greater than or equal to 85%) | 5 (Grade 5: the growth control rate is greater than or equal to 85%)
2 | O=C1C2=C(CCCC2)C(=O)N1c1cc(OCc2nc(-c3ccco3)no2)c(Cl)cc1F [Compound A22] | 5 (Grade 5: the growth control rate is greater than or equal to 85%) | 5 (Grade 5: the growth control rate is greater than or equal to 85%) | 5 (Grade 5: the growth control rate is greater than or equal to 85%) | 5 (Grade 5: the growth control rate is greater than or equal to 85%) | 5 (Grade 5: the growth control rate is greater than or equal to 85%) | 5 (Grade 5: the growth control rate is greater than or equal to 85%) | 1 (Grade 1: the growth control rate is greater than or equal to 5% and less than 20%) | 2 (Grade 2: the growth control rate is greater than or equal to 20% and less than 40%) | 3 (Grade 3: the growth control rate is greater than or equal to 40% and less than 60%) | 4 (Grade 4: the growth control rate is greater than or equal to 60% and less than 85%) | 5 (Grade 5: the growth control rate is greater than or equal to 85%) | 5 (Grade 5: the growth control rate is greater than or equal to 85%) | 2 (Grade 2: the growth control rate is greater than or equal to 20% and less than 40%) | 3 (Grade 3: the growth control rate is greater than or equal to 40% and less than 60%) | 4 (Grade 4: the growth control rate is greater than or equal to 60% and less than 85%) | 4 (Grade 4: the growth control rate is greater than or equal to 60% and less than 85%) | 5 (Grade 5: the growth control rate is greater than or equal to 85%) | 5 (Grade 5: the growth control rate is greater than or equal to 85%)
3 | Cc1cc(F)ccc1-c1noc(COc2cc(N3C(=O)C4=C(CCCC4)C3=O)c(F)cc2Cl)n1 [Compound A23] | 5 (Grade 5: the growth control rate is greater than or equal to 85%) | 5 (Grade 5: the growth control rate is greater than or equal to 85%) | 5 (Grade 5: the growth control rate is greater than or equal to 85%) | 5 (Grade 5: the growth control rate is greater than or equal to 85%) | 5 (Grade 5: the growth control rate is greater than or equal to 85%) | 5 (Grade 5: the growth control rate is greater than or equal to 85%) | 1 (Grade 1: the growth control rate is greater than or equal to 5% and less than 20%) | 2 (Grade 2: the growth control rate is greater than or equal to 20% and less than 40%) | 3 (Grade 3: the growth control rate is greater than or equal to 40% and less than 60%) | 4 (Grade 4: the growth control rate is greater than or equal to 60% and less than 85%) | 5 (Grade 5: the growth control rate is greater than or equal to 85%) | 5 (Grade 5: the growth control rate is greater than or equal to 85%) | 2 (Grade 2: the growth control rate is greater than or equal to 20% and less than 40%) | 3 (Grade 3: the growth control rate is greater than or equal to 40% and less than 60%) | 4 (Grade 4: the growth control rate is greater than or equal to 60% and less than 85%) | 4 (Grade 4: the growth control rate is greater than or equal to 60% and less than 85%) | 5 (Grade 5: the growth control rate is greater than or equal to 85%) | 5 (Grade 5: the growth control rate is greater than or equal to 85%)
4 | O=C1C2=C(CCCC2)C(=O)N1c1cc(OCc2nc(-c3c(F)cccc3F)no2)c(Cl)cc1F [Compound A24] | 5 (Grade 5: the growth control rate is greater than or equal to 85%) | 5 (Grade 5: the growth control rate is greater than or equal to 85%) | 5 (Grade 5: the growth control rate is greater than or equal to 85%) | 5 (Grade 5: the growth control rate is greater than or equal to 85%) | 5 (Grade 5: the growth control rate is greater than or equal to 85%) | 5 (Grade 5: the growth control rate is greater than or equal to 85%) | 1 (Grade 1: the growth control rate is greater than or equal to 5% and less than 20%) | 2 (Grade 2: the growth control rate is greater than or equal to 20% and less than 40%) | 3 (Grade 3: the growth control rate is greater than or equal to 40% and less than 60%) | 4 (Grade 4: the growth control rate is greater than or equal to 60% and less than 85%) | 5 (Grade 5: the growth control rate is greater than or equal to 85%) | 5 (Grade 5: the growth control rate is greater than or equal to 85%) | 2 (Grade 2: the growth control rate is greater than or equal to 20% and less than 40%) | 3 (Grade 3: the growth control rate is greater than or equal to 40% and less than 60%) | 4 (Grade 4: the growth control rate is greater than or equal to 60% and less than 85%) | 4 (Grade 4: the growth control rate is greater than or equal to 60% and less than 85%) | 5 (Grade 5: the growth control rate is greater than or equal to 85%) | 5 (Grade 5: the growth control rate is greater than or equal to 85%)
